{"source": "patent US9180183B2", "about": "“Phospholipid drug analogs” (Telormedix SA, priority 2010, dated 2015)", "key": {"[1]": {"system": "HLA-DR+/CD11c+/CD123- mDCs", "assay": "FACS analysis of myeloid DC activation in whole blood", "format": "cell-based, human", "conditions": "24 hours; 0.1 and 0.5 uM; three donors", "method": "The FACS analysis for donor 1 and donor 2 was made on another day than donor 3. The compound concentrations were as follows:\nThe FACS analysis was used to identify whether the test compounds could induce activation of B cells, and two different subsets of dendritic cells, namely the myeloid CD11c+/CD123− DCs and the plasmacytoid CD11c−/CD123+ DCs. The following markers were studied to identify the activation status of the different subsets:\nThe FACS staining was performed according to the manufacturer's instructions. Lysis of red blood cells was performed before FACS staining in order to minimize auto-florescence. To include as many B cells and DCs in the study as possible the FACS analyses were performed on 500,000 cells in total for each staining. A P1 gate was set only to include relevant cells on FSC vs. SSC (see FIGS. 12-15). The results of the individual analysis were present as Mean Fluorescence Intensity\nThe analysis of myeloid DCs was based on HLA-DR+/CD11c+/CD123−cells, thus all analyzed cells was included in the HLA-DR+ (P3) gate and CD11c+/CD123− (Q4) gate (see gates in FIGS. 13-15)."}, "[2]": {"system": "73 primary molecular targets (human recombinant receptor types and subtypes or membrane fraction from rodent tissue homogenates)", "assay": "Radioligand binding assay among 73 primary molecular targets", "conditions": "SC12 at 30 microM"}, "[3]": {"assay": "Stability study of SC12 under storage conditions (HPLC)", "format": "physicochemical"}, "[4]": {"assay": "Plasma stability in human plasma (second experiment)", "conditions": "up to 120 min", "method": "Second experiment: Test compounds (5 mM in DMSO) were diluted at the final concentration of 250 μM with ACN-MeOH 1:1.\nHuman plasma (1.180 ml) was spiked with 20 μl of 250 μM solution of the compound (4.16 μM final concentration) and aliquots of 50 μl volume were taken at 0, 15, 30, 60, 120 min and 5 hrs, and immediately quenched with 200 μl of a solution of Verapamil 250 ng/ml (internal standard, I.S.) in ACN:MeOH 95:5. Samples were then centrifuged for 20 min at 3000 rpm at 10° C. and analyzed as reported below. […] The supernatant fractions were analyzed by LC/MS/MS. Zero-time incubations were used as 100% values.\nStability was calculated as percentage remaining of the area ratio compound/I.S. at each time point vs. area ratio compound/I.S. at time 0 min."}, "CYP3A4": {"molecular_target": "CYP3A4 (Homo sapiens (Human), UniProt P08684)", "sequence (P08684 whole entry, looked up)": "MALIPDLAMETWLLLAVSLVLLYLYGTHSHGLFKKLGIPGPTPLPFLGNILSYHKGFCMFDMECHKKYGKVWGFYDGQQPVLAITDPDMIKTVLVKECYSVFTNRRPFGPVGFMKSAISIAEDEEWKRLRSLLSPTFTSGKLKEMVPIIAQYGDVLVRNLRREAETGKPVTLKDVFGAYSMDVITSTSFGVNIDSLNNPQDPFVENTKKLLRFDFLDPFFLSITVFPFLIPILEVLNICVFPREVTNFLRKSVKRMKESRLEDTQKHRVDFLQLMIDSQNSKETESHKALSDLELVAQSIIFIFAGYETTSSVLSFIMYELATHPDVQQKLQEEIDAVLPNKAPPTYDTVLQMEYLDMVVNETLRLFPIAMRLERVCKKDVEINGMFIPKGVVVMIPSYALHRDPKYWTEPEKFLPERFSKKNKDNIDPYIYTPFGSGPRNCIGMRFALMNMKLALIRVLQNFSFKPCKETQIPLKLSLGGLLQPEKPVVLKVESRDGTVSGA", "assay": "Fluorescent High Throughput P450 assay CYP3A4", "format": "in vitro ADME", "protocol": "(§2) Inhibition of the P450 isoforms was measured in specific assays using specific substrates that become fluorescent upon CYP metabolism. Compounds, dissolved in ACN (acetonitrile) (CYP2E1, CYP2C8, CYP2B6, CYP3A5) or DMSO (all remaining isoforms), were tested in duplicate (n=2) in concentration-response curves (eight concentrations) in a 96-well plate containing incubation/NADPH regenerating buffer. Specific isoenzymes and substrates were added and incubated at 37° C. Reactions were terminated at different times, depending on the assays, and plates read on a Fluoroskan Ascent at the appropriate emission/excitation wavelengths. Concentration-response curves performed in duplicate for known inhibitors for each isoenzyme were tested in every assay as positive control."}, "[5]": {"system": "Escherichia coli WP2 uvrA", "assay": "Bacterial mutation assay, Escherichia coli", "format": "cell-based", "conditions": "absence or presence of S9 metabolism", "method": "(§1) The five tester strains TA1535, TA1537, TA98, TA100 and WP2 uvrA were used. Experiments were performed both in the absence and presence of metabolic activation, using liver S9 fraction from rats pre-treated with phenobarbitone and betanaphthoflavone. SC12 was used as a solution in dimethylsulfoxide (DMSO)."}, "human whole blood": {"system": "human whole blood", "assay": "Cytokine secretion in human whole blood assay (ELISA)", "format": "cell-based", "conditions": "for IL-12p40 levels: all donors", "method": "Before drawing the blood, the compounds were added to 96 well round bottom plates in a 10× diluted sample at 20 ul. The compounds were diluted in RPMI media without serum but with antibiotics. Antibiotics were added at a 10× concentration. After drawing the blood, the whole blood sample was gently mixed to obtain a homogeneous sample, and 180 ul was added to each well.\nAll compounds were setup in concentrations at 0-0.01-0.03-0.1-0.5-2.0-10.0 micromolar as the final concentration. Vehicle control was DMSO control, where we used the highest concentration used for the compounds. After addition of blood, all plates were gently agitated at 37° C. and 5% CO2 until harvest.\nConcentrations of cytokines were determined by ELISA from R&D Systems. The results were analyzed in Graph Pad Prism in order to prepare dose-response curves, and for determination of EC50 values. FACS analysis was made by using Becton-Dickinson FACSDiva software and subsequently illustrated in Graph Pad Prism."}, "CYP3A5": {"molecular_target": "CYP3A5 (Homo sapiens (Human), UniProt P20815)", "sequence (P20815 whole entry, looked up)": "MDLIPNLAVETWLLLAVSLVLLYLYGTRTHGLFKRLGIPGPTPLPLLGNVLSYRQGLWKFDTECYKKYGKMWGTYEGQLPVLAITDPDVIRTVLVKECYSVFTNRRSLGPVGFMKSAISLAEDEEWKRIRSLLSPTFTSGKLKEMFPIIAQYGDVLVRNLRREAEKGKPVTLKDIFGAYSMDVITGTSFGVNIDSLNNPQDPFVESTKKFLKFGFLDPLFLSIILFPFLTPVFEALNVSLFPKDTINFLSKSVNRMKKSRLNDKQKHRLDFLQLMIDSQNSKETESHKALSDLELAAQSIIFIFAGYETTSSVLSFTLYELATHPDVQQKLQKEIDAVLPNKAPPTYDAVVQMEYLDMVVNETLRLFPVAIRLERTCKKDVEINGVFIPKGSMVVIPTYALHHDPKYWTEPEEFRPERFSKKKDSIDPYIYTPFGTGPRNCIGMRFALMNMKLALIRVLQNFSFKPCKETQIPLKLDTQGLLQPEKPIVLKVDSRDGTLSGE", "assay": "Fluorescent High Throughput P450 assay CYP3A5", "format": "in vitro ADME", "protocol": "as §2"}, "CYP2C9": {"molecular_target": "CYP2C9 (Homo sapiens (Human), UniProt P11712)", "sequence (P11712 whole entry, looked up)": "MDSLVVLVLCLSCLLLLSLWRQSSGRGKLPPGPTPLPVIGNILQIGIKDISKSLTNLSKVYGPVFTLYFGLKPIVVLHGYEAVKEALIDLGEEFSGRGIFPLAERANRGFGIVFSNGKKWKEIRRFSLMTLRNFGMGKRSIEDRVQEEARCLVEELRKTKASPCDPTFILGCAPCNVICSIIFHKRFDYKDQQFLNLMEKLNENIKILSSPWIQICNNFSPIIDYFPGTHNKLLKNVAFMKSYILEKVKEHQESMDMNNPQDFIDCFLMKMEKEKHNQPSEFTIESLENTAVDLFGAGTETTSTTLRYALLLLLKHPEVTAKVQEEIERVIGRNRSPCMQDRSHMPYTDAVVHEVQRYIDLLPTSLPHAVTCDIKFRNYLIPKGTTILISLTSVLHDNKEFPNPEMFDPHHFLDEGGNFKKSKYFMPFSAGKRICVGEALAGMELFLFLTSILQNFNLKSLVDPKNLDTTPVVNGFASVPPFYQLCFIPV", "assay": "Fluorescent High Throughput P450 assay CYP2C9", "format": "in vitro ADME", "protocol": "as §2"}, "CYP2E1": {"molecular_target": "CYP2E1 (Homo sapiens (Human), UniProt P05181)", "sequence (P05181 whole entry, looked up)": "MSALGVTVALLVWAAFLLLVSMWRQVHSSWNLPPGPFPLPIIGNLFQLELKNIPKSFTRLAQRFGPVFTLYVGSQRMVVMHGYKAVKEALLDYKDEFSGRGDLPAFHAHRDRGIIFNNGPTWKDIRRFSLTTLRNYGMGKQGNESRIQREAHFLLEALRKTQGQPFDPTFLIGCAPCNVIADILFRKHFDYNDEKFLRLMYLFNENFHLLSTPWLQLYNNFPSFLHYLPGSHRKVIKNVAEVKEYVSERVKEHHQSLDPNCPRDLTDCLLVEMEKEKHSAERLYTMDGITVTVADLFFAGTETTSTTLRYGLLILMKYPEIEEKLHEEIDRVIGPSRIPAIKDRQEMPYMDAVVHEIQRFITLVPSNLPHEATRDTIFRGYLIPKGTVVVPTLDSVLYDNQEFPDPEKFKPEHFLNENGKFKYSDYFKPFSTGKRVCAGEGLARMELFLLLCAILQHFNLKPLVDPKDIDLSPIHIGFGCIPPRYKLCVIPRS", "assay": "Fluorescent High Throughput P450 assay CYP2E1", "format": "in vitro ADME", "protocol": "as §2"}, "[6]": {"assay": "Solubility in organic solvents", "format": "physicochemical", "conditions": "especially in ACN"}, "[7]": {"system": "Salmonella typhimurium TA1535, TA1537, TA98, TA100", "assay": "Bacterial mutation assay, Salmonella typhimurium", "format": "cell-based", "conditions": "absence or presence of S9 metabolism", "method": "as §1"}, "PBMCs": {"system": "PBMCs", "assay": "IL-6 and TNF-alpha secretion in PBMCs (ELISA), Model 2", "format": "cell-based, human", "conditions": "three donors"}, "[8]": {"conditions": "solid, RT and light, t = 20 days"}, "[9]": {"conditions": "solid, external T and light, t = 20 days"}, "[10]": {"conditions": "solution in CHCl3, RT and light, t = 0"}, "[11]": {"conditions": "solution in CHCl3, RT and light, t = 20 days"}, "[12]": {"conditions": "toxicity test, 50.0-5000 micrograms/plate"}, "[13]": {"conditions": "whole blood, 6 hours incubation"}}, "note": "“Also recorded” adds a separate entry of the source."}
{"smiles": "CCCCCCCCCCCC(=O)OCC(COP(=O)(O)OCCNC(=O)c1ccc(Cn2c(=O)[nH]c3c(N)nc(OCCOC)nc32)cc1)OC(=O)CCCCCCCCCCC", "note": "(stereo not drawn) [SC12]", "values": [{"measurement": "CCR7 expression in mDCs (MFI, in words)", "setting": "[1]", "value": "less potent stimulator of CCR7 expression"}, {"measurement": "CD80 expression in mDCs (MFI, in words)", "setting": "[1]", "value": "induced a noteworthy CD80 expression in all three donors"}, {"measurement": "CD86 expression in mDCs (MFI, in words)", "setting": "[1]", "value": "induces a weak CD86 expression in donor 2 and 3, but not in donor 1"}, {"measurement": "binding to receptors associated with pain-related syndromes (e.g. adenosine and sodium channel)", "setting": "[2]", "value": "did not bind"}, {"measurement": "HPLC % at RRT = 1 (main peak)", "setting": "[3]; [8]", "value": "RRT = 1: 87.8%"}, {"measurement": "HPLC % of impurity at RRT = 0.88", "setting": "[3]; [8]", "value": "RRT = 0.88: 6.2%"}, {"measurement": "HPLC % of impurity at RRT = 1.21", "setting": "[3]; [8]", "value": "RRT = 1.21: 4.8%"}, {"measurement": "HPLC % at RRT = 1 (main peak)", "setting": "[3]; [9]", "value": "RRT = 1: 84.0%"}, {"measurement": "HPLC % of impurity at RRT = 0.88", "setting": "[3]; [9]", "value": "RRT = 0.88: 6.6%"}, {"measurement": "HPLC % of impurity at RRT = 1.21", "setting": "[3]; [9]", "value": "RRT = 1.21: 7.1%"}, {"measurement": "HPLC % at RRT = 1 (main peak)", "setting": "[3]; [10]", "value": "RRT = 1: 90.3%"}, {"measurement": "HPLC % of impurity at RRT = 0.46", "setting": "[3]; [10]", "value": "RRT = 0.46: 5.7%"}, {"measurement": "HPLC % of impurity at RRT = 1.21", "setting": "[3]; [10]", "value": "RRT = 1.21: 0.9%"}, {"measurement": "HPLC % at RRT = 1 (main peak)", "setting": "[3]; [11]", "value": "RRT = 1: 88.0%"}, {"measurement": "HPLC % of impurity at RRT = 0.88", "setting": "[3]; [11]", "value": "RRT = 0.88: 6.2%"}, {"measurement": "HPLC % of impurity at RRT = 1.21", "setting": "[3]; [11]", "value": "RRT = 1.21: 5.0%"}, {"measurement": "stability classification", "setting": "[4]", "value": "stable"}, {"measurement": "inhibition of CYP3A4 (in words)", "setting": "CYP3A4", "value": "moderate inhibition"}, {"measurement": "toxicity to tester strains", "setting": "[5]; [12]", "value": "No toxicity was observed"}, {"measurement": "reverse mutation / revertant colonies", "setting": "[5]; up to 5000 micrograms/plate", "value": "did not induce two-fold increases in the number of revertant colonies; also recorded: does not induce reverse mutation"}, {"measurement": "induction of DC secreted cytokines (in words)", "setting": "human whole blood; supernatant from whole blood cell assays", "value": "potent inducers"}, {"measurement": "range of IL-6 secretion", "setting": "human whole blood; whole blood, three donors", "value": "4000 to 8000", "unit": "pg/mL"}, {"measurement": "ranges of IFN-alpha secreted", "setting": "human whole blood; whole blood, three donors", "value": "1000 to 2000", "unit": "pg/mL"}, {"measurement": "IL-10 production (in words)", "setting": "human whole blood; [13]", "value": "no IL-10 production was seen"}, {"measurement": "IL-12p40 levels", "setting": "human whole blood; [13]", "value": "8.000 to 12.000", "unit": "pg/mL"}, {"measurement": "IL-12p40 levels", "setting": "human whole blood; whole blood, 24 hours incubation", "value": "20.000 to 25.000", "unit": "pg/mL"}, {"measurement": "inhibition of CYP3A5 (in words)", "setting": "CYP3A5", "value": "moderate inhibition"}, {"measurement": "inhibition of CYP2C9 (in words)", "setting": "CYP2C9", "value": "weak inhibition"}, {"measurement": "inhibition of CYP2E1 (in words)", "setting": "CYP2E1", "value": "moderate inhibition"}, {"measurement": "solubility", "setting": "[6]", "value": "low solubility"}, {"measurement": "toxicity to tester strains", "setting": "[7]; [12]", "value": "No toxicity was observed"}, {"measurement": "reverse mutation / revertant colonies", "setting": "[7]; up to 5000 micrograms/plate", "value": "did not induce two-fold increases in the number of revertant colonies; also recorded: does not induce reverse mutation"}, {"measurement": "induction of IL-6 and TNF-alpha secretion (in words)", "setting": "PBMCs", "value": "most potent TLR7 agonists"}]}
